Reference: ChEMBL document CHEMBL1799982, “Synthesis, protein kinase inhibitory potencies, and in vitro antiproliferative activities of meridianin derivatives” (J Med Chem, 2011)

What was measured:
HT-22 = test: Antiproliferative activity against mouse HT22 cells by MTS reduction assay
MCF7 = test: Antiproliferative activity against human MCF7 cells after 48 hrs by resazurin reduction test; conditions: MCF7, 48 h
SH-SY5Y = test: Antiproliferative activity against human SH-SY5Y cells by MTS reduction assay
[1] = target: Dual specificity tyrosine-phosphorylation-regulated kinase 1A (Rattus norvegicus, UniProt Q63470); test: Inhibition of rat recombinant GST-tagged DYRK1A using myelin protein as substrate and [gamma32]-ATP after 30 mins by scintillation counting
IMR-32 = test: Antiproliferative activity against human IMR32 cells by MTS reduction assay
[2] = Inhibition of pig brain CK1 delta/epsilon using RRKHAAIGpSAYSITA as substrate; set-up: species or system Sus scrofa
[3] = target: Glycogen synthase kinase-3 (Sus scrofa, UniProt B2LUN4+I6LNT8); test: Inhibition of pig brain GSK-3alpha/beta using YRRAAVPPSPSLSRHSSPHQSpEDEEE as substrate
[4] = target: Dual specificity protein kinase CLK1 (Homo sapiens, UniProt P49759)
PA-1 = test: Antiproliferative activity against human PA1 cells after 48 hrs by resazurin reduction test; assay type: functional, cell-based; conditions: PA-1, 48 h
[5] = target: Cyclin-dependent kinase 5/CDK5 activator 1 (Homo sapiens, UniProt Q00535); test: Inhibition of human recombinant CDK5/p25 using Histone H1 and [gamma32]-ATP after 30 mins by scintillation counting; assay type: protein-complex assay
PC-3 = test: Antiproliferative activity against human PC3 cells after 48 hrs by resazurin reduction test; conditions: PC-3, 48 h
DU-145 = test: Antiproliferative activity against human DU145 cells after 48 hrs by resazurin reduction test; assay type: functional, cell-based; conditions: DU-145, 48 h
[6] = Antiproliferative activity against human primary fibroblasts after 48 hrs by resazurin reduction test; assay type: cell-based; conditions: Fibroblast

Cyclin-dependent kinase 5/CDK5 activator 1, sequence (Q00535 whole entry): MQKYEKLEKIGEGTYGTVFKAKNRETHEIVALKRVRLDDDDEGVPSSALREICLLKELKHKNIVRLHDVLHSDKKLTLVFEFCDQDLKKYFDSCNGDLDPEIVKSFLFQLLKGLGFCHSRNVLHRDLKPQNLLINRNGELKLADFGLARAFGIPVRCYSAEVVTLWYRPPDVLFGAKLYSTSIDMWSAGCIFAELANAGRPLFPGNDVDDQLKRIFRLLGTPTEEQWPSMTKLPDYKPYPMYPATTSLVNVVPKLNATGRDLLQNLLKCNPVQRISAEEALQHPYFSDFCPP
Cyclin-dependent kinase 5/CDK5 activator 1, sequence (Q15078 whole entry, further chain): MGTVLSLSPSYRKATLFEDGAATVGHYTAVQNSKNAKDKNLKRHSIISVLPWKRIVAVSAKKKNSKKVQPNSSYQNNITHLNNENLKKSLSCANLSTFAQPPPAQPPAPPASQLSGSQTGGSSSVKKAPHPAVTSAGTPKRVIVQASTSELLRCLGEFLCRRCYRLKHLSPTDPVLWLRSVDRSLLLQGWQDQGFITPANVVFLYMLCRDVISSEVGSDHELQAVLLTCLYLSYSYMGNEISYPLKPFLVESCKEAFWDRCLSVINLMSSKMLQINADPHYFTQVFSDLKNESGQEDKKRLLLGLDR
Dual specificity protein kinase CLK1, sequence (P49759 whole entry): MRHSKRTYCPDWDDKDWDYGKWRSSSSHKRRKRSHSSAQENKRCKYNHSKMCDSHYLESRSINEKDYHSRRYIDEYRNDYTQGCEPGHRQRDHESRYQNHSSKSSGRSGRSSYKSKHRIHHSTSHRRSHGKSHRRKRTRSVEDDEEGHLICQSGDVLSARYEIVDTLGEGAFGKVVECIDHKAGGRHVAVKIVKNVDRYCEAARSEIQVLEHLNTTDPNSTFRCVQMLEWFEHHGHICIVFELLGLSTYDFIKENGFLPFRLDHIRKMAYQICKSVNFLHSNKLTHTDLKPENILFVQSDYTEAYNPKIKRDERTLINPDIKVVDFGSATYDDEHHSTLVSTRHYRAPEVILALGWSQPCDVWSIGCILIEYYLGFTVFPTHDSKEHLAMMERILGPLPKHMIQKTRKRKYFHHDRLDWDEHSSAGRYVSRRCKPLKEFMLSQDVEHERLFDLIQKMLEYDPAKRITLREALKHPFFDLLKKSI

Row | Compound | IC50 (HT-22) [µM] | IC50 (MCF7) [µM] | IC50 (SH-SY5Y) [µM] | IC50 [1] [µM] | IC50 (IMR-32) [µM] | IC50 [2] [µM] | IC50 [3] [µM] | IC50 [4] [µM] | IC50 (PA-1) [µM] | IC50 [5] [µM] | IC50 (PC-3) [µM] | IC50 (DU-145) [µM] | IC50 [6] [µM]
1 | CC(=O)Nc1ccc(-c2cnc(N)nc2-c2c[nH]c3ccc(Br)cc23)cc1 | > 10 | > 10 | > 10 | 4.15 | > 10 | 2.1 | 0.4 | 0.75 | > 10 | 6.8 | > 10 | – | –
2 | Nc1ncc(-c2ccc(C(F)(F)F)cc2)c(-c2c[nH]c3cccc(Br)c23)n1 | > 10 | > 10 | > 10 | 1.85 | > 10 | > 10 | 1 | 1.3 | > 10 | 4.7 | > 10 | – | –
3 | Nc1ncc(-c2ccc(C(F)(F)F)cc2)c(-c2c[nH]c3ccc(Br)cc23)n1 | > 10 | > 10 | > 10 | > 10 | > 10 | > 10 | 2 | > 10 | > 10 | > 10 | > 10 | – | –
4 | Nc1ncc(-c2ccc(C(F)(F)F)cc2)c(-c2c[nH]c3cc(Br)ccc23)n1 | > 10 | > 10 | > 10 | > 10 | > 10 | > 10 | 6.1 | > 10 | > 10 | > 10 | > 10 | – | –
5 | COc1cccc(-c2cnc(N)nc2-c2c[nH]c3cccc(Br)c23)c1 | > 10 | > 10 | > 10 | 0.81 | > 10 | > 10 | 1.4 | 1.3 | > 10 | 6 | > 10 | – | –
6 | COc1cccc(-c2cnc(N)nc2-c2c[nH]c3ccc(Br)cc23)c1 | 18 | > 25 | > 25 | 5.65 | 20 | 2.2 | 1.2 | 2.5 | > 10 | 7.6 | > 10 | – | –
7 | COc1cccc(-c2cnc(N)nc2-c2c[nH]c3cc(Br)ccc23)c1 | 16 | > 25 | > 25 | 8.2 | 18 | 3.2 | 4.5 | 2.3 | > 10 | > 10 | > 10 | – | –
8 | Nc1nccc(-c2c[nH]c3cc([N+](=O)[O-])ccc23)n1 | > 25 | > 25 | > 25 | 1.1 | > 25 | 6.3 | > 10 | 0.38 | – | > 10 | – | – | –
9 | Nc1nccc(-c2c[nH]c3c([N+](=O)[O-])cccc23)n1 | > 25 | > 25 | > 25 | 0.085 | > 25 | 10 | > 10 | 0.07 | – | 6.3 | – | – | –
10 | Nc1ncc(I)c(-c2c[nH]c3ccc([N+](=O)[O-])cc23)n1 | 20 | > 25 | > 25 | 0.25 | 10 | 0.42 | 0.66 | 0.12 | 8.4 | 1.6 | 26 | 13.3 | 19
11 | Nc1ncc(I)c(-c2c[nH]c3cc([N+](=O)[O-])ccc23)n1 | 18 | > 25 | 12 | 0.095 | 10 | 1 | 2.6 | 0.067 | 2 | 1.6 | 11 | 6.3 | 13
12 | Nc1ncc(I)c(-c2c[nH]c3c([N+](=O)[O-])cccc23)n1 | > 10 | > 10 | > 10 | 0.46 | > 10 | > 10 | > 10 | 0.041 | 3.2 | > 10 | 6 | 5.2 | 4.7
13 | Nc1ncc(I)c(-c2c[nH]c3ccccc23)n1 | 7.3 | 17 | 7.5 | 0.066 | 10 | 0.9 | 3.7 | 0.03 | 3.3 | 1.4 | 10.6 | 5 | 8
14 | Nc1ncc(I)c(-c2c[nH]c3cccc(N)c23)n1 | > 10 | > 10 | > 10 | 2.8 | > 10 | > 10 | > 10 | 1 | 18 | > 10 | > 50 | > 50 | > 50
15 | Nc1ccc2[nH]cc(-c3nc(N)ncc3I)c2c1 | > 10 | > 10 | > 10 | 2.3 | > 10 | 0.27 | > 10 | 0.61 | 11 | > 10 | 48 | 40 | 44
16 | Nc1ccc2c(-c3nc(N)ncc3I)c[nH]c2c1 | > 10 | > 10 | > 10 | 0.22 | > 10 | 0.51 | 4.2 | 0.08 | 13 | 6.2 | 47 | 26 | 36
17 | Nc1ncc(I)c(-c2c[nH]c3c(N)cccc23)n1 | 12 | 20 | 9 | 0.11 | 4 | 1.1 | 4.4 | 0.026 | 2.5 | 0.66 | 14 | 6.1 | 10.6
18 | Nc1nccc(-c2c[nH]c3cccc(Br)c23)n1 | > 25 | > 25 | > 25 | 0.85 | > 25 | 5.3 | > 10 | 1.4 | – | 10 | – | – | –
19 | Nc1nccc(-c2c[nH]c3c(Br)cccc23)n1 | > 25 | > 25 | > 25 | 0.068 | 25 | 4.2 | > 10 | 0.065 | – | 3.1 | – | – | –
20 | Nc1ncc(I)c(-c2c[nH]c3cccc(Br)c23)n1 | > 10 | > 10 | > 10 | 1.45 | > 10 | 1.3 | > 10 | 2.3 | > 10 | > 10 | > 10 | – | –
21 | Nc1ncc(I)c(-c2c[nH]c3ccc(Br)cc23)n1 | 8 | > 25 | 23 | 0.33 | 13 | 0.77 | 2.1 | 0.18 | > 10 | 1.8 | > 10 | – | –
22 | CC(=O)c1ccc(-c2cnc(N)nc2-c2c[nH]c3cccc(Br)c23)cc1 | > 10 | > 10 | > 10 | 2.1 | > 10 | > 10 | – | – | > 10 | 7 | > 10 | – | –
23 | CC(=O)c1ccc(-c2cnc(N)nc2-c2c[nH]c3ccc(Br)cc23)cc1 | 10 | 4.2 | > 25 | 8.45 | 13 | > 10 | 0.68 | 1.6 | > 10 | > 10 | > 10 | – | –
24 | CC(=O)Nc1ccc(-c2cnc(N)nc2-c2c[nH]c3cccc(Br)c23)cc1 | > 10 | > 10 | > 10 | > 10 | > 10 | > 10 | > 10 | > 10 | > 10 | > 10 | > 10 | – | –
25 | Nc1nccc(-c2c[nH]c3ccccc23)n1 | > 25 | > 25 | > 25 | 0.7 | > 25 | 6.2 | > 10 | 0.53 | – | 5 | – | – | –
26 | Nc1nccc(-c2c[nH]c3ccc(Br)cc23)n1 [MERIDIANIN C] | 9.3 | 24 | > 25 | 0.33 | > 25 | 7.3 | 1.3 | 0.22 | – | 1.2 | – | – | –
27 | Nc1nccc(-c2c[nH]c3cc(Br)ccc23)n1 [MERIDIANIN D] | > 25 | > 25 | > 25 | 0.13 | > 25 | 3.8 | 7.2 | 0.12 | – | 1.2 | – | – | –
